Tested on: mixed-species bacterial culture (Actinomyces viscosus, Lactobacillus casei, Fusobacterium nucleatum subsp. polymorphum, Streptococcus oralis and Veillonella …)
Assay: Short interval kill (SIK) test
Type: cell-based
Conditions: thirty seconds treatment, Live/Dead staining
Method: The anti-microbial efficacy of mouthwash formulations according to the present invention was tested using short interval kill (SIK) test. The formulations tested were the same as those used in Example 2. 500 μl of a mixed-species bacterial culture (Actinomyces viscosus (ATCC#43146), Lactobacillus casei (ATCC#334), Fusobacterium nucleatum subsp. polymorphum (ATCC#10953), Streptococcus oralis (ATCC#35037) and Veillonella parvula (ATCC#17745)) were transferred to sterile 2 ml microcentrifuge tubes. The samples were centrifuged for 10 min at ˜21 000×g to pellet bacterial cells. […] The re-suspended samples were subsequently treated with 100 μl of mouthwash or control solution. Bacterial killing was stopped after thirty seconds by adding 1.3 ml of D/E Neutralization Buffer. Samples were centrifuged for 10 min at 10,000 rpm to pellet bacterial cells. […] Finally, the pelleted cells were suspended in 150 μl of sterile PBS and aliquots were transferred to each of three wells of a sterile 96-well plate. To quantify the viable bacteria left after treatment, the bacterial suspensions were stained using Invitrogen BacLight Live/Dead viability kit. This kit consists of two fluorescent dyes, propidium iodine and SYTO9. The first dye, propidium iodide, is a red fluorescent DNA stain that can only penetrate bacterial cells whose membranes have been permeabilized (i.e. those cells that are “dead”). The second dye, SYTO9, is a green fluorescent DNA dye that is able to stain all bacterial cells. The bacterial suspensions were stained by adding 50 μl of a solution containing the two dyes in equal amounts to each well of the 96-well plate. Plates were then incubated for 15 min at room temperature, protected from light. The fluorescence of the samples were measured at an excitation wavelength of 485 nm and emission wavelengths of 535 nm and 635 nm. The results are illustrated in Table 8, and are provided as the percentage of cells that are viable relative to a control treatment with PBS alone.

Compound: CCO [Ethanol 100%, Ethanol]
- percentage of cells that are viable relative to PBS control, Run 1 (Run 1): 44%
- percentage of cells that are viable relative to PBS control, Run 2 (Run 2): 47%
- percentage of cells that are viable relative to PBS control, Run 3 (Run 3): 48%
- percentage of cells that are viable relative to PBS control, Average (average of 3 runs): 46%

From patent US20170266091A1, “Mouthwash Composition Comprising a Peroxide Source and an N-Acyl-L-Arginine Alkyl Ester Salt” (Colgate-Palmolive Company, priority 2014, published 2017)
